Data published in patent US9090624B2, “Aromatic bycyclic derivatives as CXCR4 receptor modulators” (Allergan, Inc., priority 2011, dated 2015).

Biological target: T1, human CXCR4 receptor (Homo sapiens, UniProt P61073)
T1 construct: expressed in transfected cells
Experiment: Measurement of intracellular Ca+2 responses (FLIPR), antagonism of the SDF-1α response
Assay type: cell-based
Conditions: HEK-Gqi5 cells stably expressing human CXCR4; for IC50: antagonism of SDF-1α at 1.9 nM (EC65), Fluo-4 calcium, FLIPR; for inhibition: percent antagonism of SDF-1α at 1.9 nM (EC65), test drug 2.44 nM to 40,000 nM
Experimental: Measurement of Intracellular Ca^+2 Responses for CXCR4 Compounds
HEK-Gqi5 cells stably expressing the human CXCR4 receptor were utilized for these studies. The growth media for the CXCR4 receptor expressing cell line was DMEM high glucose medium supplemented with 10% fetal bovine serum (FBS), 1% antibiotic-antimycotic, 50 ug/ml hygromycin B, and 400 μg/ml geneticin. Ten thousand cells per well were plated into 384-well poly-D-lysine coated plates one day prior to use. On the day of the experiment, the cells were washed twice with Hank's Balanced Salt Solution supplemented with 20 mM hepes (HBSS/hepes buffer). The cells were then dye loaded with 2 uM Fluo-4 diluted in the HBSS/Hepes buffer and incubated at 37° C. for 40 minutes. Extracellular dye was removed by washing the cell plates four times prior to placing the plates in the FLIPR (Fluorometric Imaging Plate Reader, Molecular Devices). Ligands were diluted in HBSS/Hepes buffer and prepared in 384-well microplates. The positive control, stromal-cell derived factor-1 (SDF-1α), was diluted in HBSS/Hepes buffer with 4 mg/ml fatty acid free bovine serum albumin. Two drug additions were made by the FLIPR. The first drug addition was the test drug in concentrations ranging from 2.44 nM to 40,000 nM. After this addition, fluorescent measurements were taken. Any calcium release in response to this drug addition represents agonist activity of the compounds. The second drug addition was SDF-1α at a final concentration of 1.9 nM (EC65). Fluorescence measurements were also taken after this second drug addition and were used to determine the ability of the test compounds to antagonize the SDF-1α response. Results were expressed as EC50 and efficacy values, as well as IC50 and percent antagonism values. As controls, SDF-1α (CXCR4 agonist) and AMD3100 (CXCR4 antagonist) dose-response curves were also determined in each study.

T1 sequence (P61073 whole entry): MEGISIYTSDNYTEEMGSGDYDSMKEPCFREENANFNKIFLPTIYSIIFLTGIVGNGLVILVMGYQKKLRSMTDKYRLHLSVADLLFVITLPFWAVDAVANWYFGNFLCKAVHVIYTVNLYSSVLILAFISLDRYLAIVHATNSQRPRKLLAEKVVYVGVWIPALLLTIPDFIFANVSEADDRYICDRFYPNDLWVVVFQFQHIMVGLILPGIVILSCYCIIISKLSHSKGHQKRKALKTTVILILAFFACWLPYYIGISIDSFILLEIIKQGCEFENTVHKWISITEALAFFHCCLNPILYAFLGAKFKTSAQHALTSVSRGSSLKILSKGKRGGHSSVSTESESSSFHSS

Row | Structure (SMILES) | IC50 | inhibition
1 | CN(C)CCNc1nc(NC2CCN(Cc3c(OCCN(C)C)cccc3N(C)C)CC2)c2sccc2n1 [Compound 2] | 0.11 µM | 95%
2 | COc1cccc(N(C)C)c1CN1CCC(Nc2nc(NCCN(C)C)nc3c2CCC3)CC1 [Compound 1, N^2-[2-(Dimethylamino)ethyl]-N^4-{1-[2-(dimethylamino)-6-methoxybenzyl]piperidin-4-yl}-6,7-dihydro-5H-cyclopenta[d]pyrimidine-2,4-diamine] | 2.92 µM | 93%
